Measurements taken from ChEMBL document CHEMBL5126528, “Recent strategies targeting Embryonic Ectoderm Development (EED) for cancer therapy: Allosteric inhibitors, PPI inhibitors, and PROTACs” (Eur J Med Chem, 2022).
Converted amounts (≈) assume the structure as drawn. Where a name gives a salt, the structure may show the parent alone.

What was measured:
[1] = target: T1, Polycomb protein EED (Homo sapiens, UniProt O75530); assay: Inhibition of EED (unknown origin)
Target sequence in this assay (O75530 whole entry): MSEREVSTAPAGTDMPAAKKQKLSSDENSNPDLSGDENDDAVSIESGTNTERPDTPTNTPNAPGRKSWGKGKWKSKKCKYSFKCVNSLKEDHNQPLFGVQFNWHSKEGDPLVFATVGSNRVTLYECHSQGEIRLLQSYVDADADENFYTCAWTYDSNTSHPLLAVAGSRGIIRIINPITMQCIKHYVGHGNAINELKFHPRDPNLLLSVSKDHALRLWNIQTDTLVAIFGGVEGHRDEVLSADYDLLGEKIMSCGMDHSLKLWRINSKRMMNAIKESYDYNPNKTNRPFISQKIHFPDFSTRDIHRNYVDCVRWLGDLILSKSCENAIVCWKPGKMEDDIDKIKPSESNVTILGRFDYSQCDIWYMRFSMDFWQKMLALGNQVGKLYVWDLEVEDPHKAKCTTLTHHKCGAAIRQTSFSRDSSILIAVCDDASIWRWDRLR

[2] = test system: Pfeiffer; assay: Antitumor activity against human Pfeiffer cells assessed as tumor growth inhibition at 100 mg/kg, po, bid for 38 days relative to control; format: functional; settings: 912 h, time 38 day, read-out: TGI
[3] = test system: KARPAS-422; assay: Antitumor activity against human KARPAS-422 cells xenografted in NOD/SCID mouse assessed as tumor growth inhibition at 40 mg/kg, bid, po for 36 days relative to control; format: functional; settings: KARPAS-422, 864 h, time 36 day, read-out: TGI
[4] = test system: Pfeiffer; assay: Antitumor activity against human Pfeiffer cells xenografted in NOD/SCID mouse assessed as tumor growth inhibition at 100 mg/kg, bid, po for 36 days relative to control; format: functional; settings: 864 h, time 36 day, read-out: TGI
[5] = target: T1, Polycomb protein EED; assay: Inhibition of His-tagged EED (unknown origin) incubated for 30 mins in presence of biotinylated H3K27me3 peptide (19 to 33 aa) by alpha screening competitive binding assay method
Target sequence in this assay (O75530 whole entry): as above

[6] = test system: KARPAS-422; assay: Antitumor activity against human KARPAS-422 cells assessed as tumor growth inhibition at 100 mg/kg, po, bid for 38 days relative to control; format: functional; settings: KARPAS-422, 912 h, time 38 day, read-out: TGI
[7] = test system: KARPAS-422; assay: Antitumor activity against human KARPAS-422 cells xenografted in NOD/SCID mouse assessed as tumor growth inhibition at 100 mg/kg, bid, po for 36 days relative to control; format: functional; settings: KARPAS-422, 864 h, time 36 day, read-out: TGI
[8] = test system: Pfeiffer; assay: Antitumor activity against human Pfeiffer cells xenografted in NOD/SCID mouse assessed as tumor growth inhibition at 40 mg/kg, bid, po for 36 days relative to control; format: functional; settings: 864 h, time 36 day, read-out: TGI
[9] = Antitumor activity against […] cells xenografted in mouse assessed as tumor growth inhibition at 30 mg/kg relative to control; format: functional; settings: read-out: TGI
[10] = target: T1, Polycomb protein EED; assay: Binding affinity to EED (unknown origin) assessed as dissociation constant
Target sequence in this assay (O75530 whole entry): as above

[11] = target: T1, Polycomb protein EED; assay: Inhibition of human EED (76 to 441 residues) expressed in Escherichia coli strain BL21(DE3) by alpha screen assay
Target sequence in this assay (O75530 whole entry): as above

[12] = test system: BC; assay: Inhibition of cell growth in human multiple BC cells bearing wildtype EZH2; format: functional, cell-based
[13] = test system: Lymphoma cell line; assay: Inhibition of cell growth in human Lymphoma cell line bearing wildtype EZH2; format: functional, cell-based
[14] = test system: Lymphoma cell line; assay: Inhibition of cell growth in human Lymphoma cell line bearing EZH2 […] mutant; format: functional, cell-based
[15] = test system: BC; assay: Inhibition of cell growth in human multiple BC cells bearing EZH2 […] mutant; format: functional, cell-based
[16] = test system: Pfeiffer; assay: Antiproliferative activity against human Pfeiffer cells treated for 14 days; format: functional, cell-based; settings: 336 h
[17] = test system: KARPAS-422; assay: Antiproliferative activity against human KARPAS-422 cells treated for 11 days; format: functional, cell-based; settings: KARPAS-422, 264 h
[18] = species on record: Homo sapiens; assay: Inhibition of GST-tagged EZH2/FLAG-tagged EED (unknown origin) protein protein interaction at 100 uM incubated for 1 hr by AlphaLISA method relative to control
[19] = test system: KARPAS-422; assay: Antiproliferative activity against human KARPAS-422 cells assessed as cell growth inhibition measured after 7 to 10 days by celltitre-glo-luminescent assay; format: functional; settings: time 7-10 day
[20] = target: T1, Polycomb protein EED; assay: Inhibition of human N-terminal His-6 tagged EED expressed in Escherichia coli strain […] by SPR analysis
Target sequence in this assay (O75530 whole entry): as above

[21] = target: T1, Polycomb protein EED; assay: Binding affinity to human N-terminal His-6 tagged EED expressed in Escherichia coli strain […] by SPR analysis
Target sequence in this assay (O75530 whole entry): as above

[22] = target: T1, Polycomb protein EED; assay: Binding affinity to full length EED (unknown origin) assessed as increase in melting temperature at 50 uM incubated for 30 mins by TSA; settings: tested as the 2H-labelled form
Target sequence in this assay (O75530 2-441 limits assumed): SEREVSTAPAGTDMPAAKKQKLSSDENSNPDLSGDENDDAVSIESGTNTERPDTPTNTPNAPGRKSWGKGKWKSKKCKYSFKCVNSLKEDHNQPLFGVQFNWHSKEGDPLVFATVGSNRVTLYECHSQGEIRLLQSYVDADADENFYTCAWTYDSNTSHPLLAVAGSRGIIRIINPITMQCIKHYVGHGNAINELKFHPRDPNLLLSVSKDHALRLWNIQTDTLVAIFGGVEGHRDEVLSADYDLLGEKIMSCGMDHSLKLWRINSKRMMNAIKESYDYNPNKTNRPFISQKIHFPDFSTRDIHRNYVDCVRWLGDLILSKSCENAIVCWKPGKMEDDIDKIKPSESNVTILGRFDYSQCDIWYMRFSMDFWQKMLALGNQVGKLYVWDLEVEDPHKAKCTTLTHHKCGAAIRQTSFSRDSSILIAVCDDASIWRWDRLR

[23] = target: T1, Polycomb protein EED; assay: Binding affinity to full length EED (unknown origin) assessed as increase in melting temperature at 100 uM incubated for 30 mins by TSA; settings: tested as the 2H-labelled form
Target sequence in this assay (O75530 2-441 limits assumed): as above

[24] = target: T1, Polycomb protein EED; settings: dose 500.0 µM
Target sequence in this assay (O75530 2-441 limits assumed): as above
Description: Binding affinity to GST-tagged EED (unknown origin) assessed as thermal stability by measuring melting temperature at 500 uM by TSA method

[25] = Inhibition of EZH2-EED (unknown origin) protein interaction by FP binding assay; set-up: species or system Homo sapiens
[26] = Binding affinity to EZH2-EED (unknown origin) protein interaction assessed as inhibition constant by FP binding assay; set-up: species or system Homo sapiens
[27] = Inhibition of FITC-labeled EZH2 (39 to 63 residues) (unknown origin)/N-terminal 6x His-tagged human EED protein interaction by incubated for 2 hrs FP-based competitive assay
[28] = Inhibition of GST-tagged EZH2/FLAG-tagged EED (unknown origin) protein protein interaction incubated for 1 hr by AlphaLISA method; set-up: species or system Homo sapiens
[29] = Inhibition of PRC2 HMTase activity in human G-401 cells using nucleosome core particles as substrate in presence of activation peptide H3K27me3 (21 to 44 residues)
[30] = Oral bioavailability in CD-1 mouse; format: ADME, organism-based; settings: in vivo
[31] = Inhibition of PRC2 (unknown origin); set-up: species or system Homo sapiens
[32] = Solubility of the compound at pH 7.4; format: physicochemical; settings: buffer
[33] = target: T1, Polycomb protein EED; assay: Binding affinity to EED (unknown origin) assessed as dissociation constant by SPR analysis
[34] = test system: LNCaP C4-2; assay: Antiproliferative activity against human LNCaP C4-2 cells
[35] = Antiproliferative activity against human ARCaP cells expressing sh RNA EPLIN
[36] = test system: LNCaP C4-2B; assay: Antiproliferative activity against human LNCaP C4-2B cells expressing TaxR
[37] = Antiproliferative activity against human ARCaPE cells expressing sh Ctrl; settings: ARCaP
[38] = test system: LNCaP C4-2B; assay: Antiproliferative activity against human LNCaP C4-2B cells

[2H]C([2H])(Nc1ncc(-c2cccnc2C)c(=O)n1C)c1c(F)ccc2c1CCO2
IC50 [1]: 4.5 nM | inhibition in vivo at 100 mg/kg [2]: 96% | inhibition in vivo at 40 mg/kg [3]: 75% | inhibition in vivo at 100 mg/kg [4]: 96% | IC50 [5]: 4.5 nM | inhibition in vivo at 100 mg/kg [6]: 85% | inhibition in vivo at 100 mg/kg [7]: 85% | inhibition in vivo at 40 mg/kg [8]: 83% | inhibition in vivo at 30 mg/kg [9]: 59.3%

Cc1nc(NCc2c(F)ccc3c2CCO3)sc1-c1ccnn1C
Kd [10]: 900 nM | IC50 [11]: 2100 nM

Cc1ncccc1-c1cnc(NCC2Cc3cc(F)ccc3O2)c2nncn12 (stereo not given)
IC50 [1]: < 100 nM

C=CC(=O)Nc1cc(Nc2nccc(-c3cn(C)c4ccccc34)n2)c(OC)cc1N(C)CCN(C)C [OSIMERTINIB]
IC50 [12]: 15 nM | IC50 [13]: 15 nM | IC50 [14]: 15 nM | IC50 [15]: 15 nM

CC(=O)N1CC=C(c2cnc(NCC3Cc4cc(F)ccc4O3)n3cnnc23)CC1 (stereo not given)
IC50 [1]: < 20 nM | IC50 [16]: 0.7 nM | IC50 [17]: 7 nM

CN1CC=C(c2cnc(NCC3Cc4cc(F)ccc4O3)c3nncn23)CC1 (stereo not given)
IC50 [1]: < 100 nM

CN1CC=C(c2cnc(NCC3Cc4cc(F)ccc4O3)n3cnnc23)CC1 (stereo not given)
IC50 [1]: < 20 nM | IC50 [16]: 2 nM | IC50 [17]: 2.8 nM

O=C(CC1S/C(=N\c2ccccc2F)N(Cc2ccc3c(c2)OCO3)C1=O)Nc1ccc(C(=O)O)cc1 (stereo not given)
inhibition [18]: 49%

Cc1nc(CCC(=O)NCCCCC(=O)N[C@H](C(=O)N2C[C@H](O)C[C@H]2C(=O)NCc2ccc(-c3scnc3C)cc2)C(C)(C)C)ccc1-c1cnc(NCc2c(F)ccc3c2CCO3)n2cnnc12
GI50 [19]: 57 nM | IC50 [20]: 7.76 nM | Kd [21]: 0.537 nM

CCS(=O)(=O)N1CC=C(c2cnc(NCC3Cc4cc(F)ccc4O3)n3cnnc23)CC1 (stereo not given)
IC50 [1]: < 20 nM | IC50 [16]: 0.8 nM | IC50 [17]: 4 nM

Cc1ncsc1-c1ccc(CNC(=O)[C@@H]2C[C@@H](O)CN2C(=O)[C@@H](NC(=O)COc2ccc(OCCNC(=O)CCc3ccc(-c4cnc(NCc5c(F)ccc6c5CCO6)n5cnnc45)c(N)n3)cc2)C(C)(C)C)cc1
GI50 [19]: 45 nM | IC50 [20]: 6.76 nM | Kd [21]: 0.631 nM

Cc1ncccc1-c1cnc(NCc2c(F)ccc3c2CCO3)n(C)c1=O
ΔTm [22]: 6 °C | ΔTm [23]: 10 °C

CN(C)[C@@H]1CN(C2CCc3cccc(F)c32)C[C@H]1c1ccc(N2CCN(S(C)(=O)=O)CC2)cc1 (stereo not given in full)
ΔTm [24]: 18 °C

C[C@@H](CO)NC(=O)[C@@H]1C=C2c3cccc4[nH]cc(c34)C[C@H]2N(C)C1 [ERGONOVINE MALEATE]
IC50 [25]: 366000 nM | Ki [26]: 71100 nM

Cc1ncccc1-c1sc(NCc2c(F)ccc3c2CCO3)nc1C
Kd [10]: 3700 nM | IC50 [11]: 5600 nM

Cc1ncccc1-c1cnc(NCC2Cc3cc(F)ccc3O2)n2cc(C#N)nc12 (stereo not given)
IC50 [1]: < 100 nM

Cc1cc(-c2cnc(NCC3Cc4cc(F)ccc4O3)n3cc(C#N)nc23)n(C)n1 (stereo not given)
IC50 [1]: < 100 nM

Cc1sc(NC(=O)CCCCC(=O)Nc2sc(C)c(C)c2C(N)=O)c(C(N)=O)c1C
IC50 [27]: 54900 nM

Cc1ncccc1-c1cnc(NCC2Cc3cc(F)ccc3O2)c2cncnc12 (stereo not given)
IC50 [1]: < 100 nM

CCOc1ccc(C(=O)CSc2nnc(-c3ccc(O)cc3)c(-c3ccc(O)cc3)n2)cc1NC(=O)CC
IC50 [28]: 64000 nM

CS(=O)(=O)c1ccc(-c2cnc(NCc3ccco3)n3cnnc23)cc1
IC50 [1]: 20 nM | IC50 [29]: 220 nM | F [30]: 10%

O=C1Nc2ccc(S(=O)(=O)NCCCCCCNS(=O)(=O)c3ccc4c5c(cccc35)C(=O)N4)c3cccc1c23
inhibition [18]: 84%

CN1CC=C(c2cnc(NCC3Cc4cc(F)ccc4O3)c3cncnc23)CC1 (stereo not given)
IC50 [1]: < 100 nM

Cc1ccc(C(C2=C(O)CC(C)(C)CC2=O)C2C(=O)CC(C)(C)CC2=O)s1 (stereo not given)
IC50 [27]: 63800 nM

CCCCc1ccc(Nc2nnc(SCc3occc3C(=O)O)s2)cc1
IC50 [28]: 32000 nM

COC(=O)C1=C(C)NC(C)=C(C(=O)OC)C1c1ccccc1[N+](=O)[O-] [NIFEDIPINE]
IC50 [25]: 343000 nM | Ki [26]: 66600 nM

Cc1ncccc1-c1cnc(NCc2c(F)cc(O)c3c2CCO3)n2cnnc12
IC50 [31]: 15 nM | solubility [32]: 5 µM (≈ 1.96 µg/mL)

Cc1ncccc1-c1cnc(NCc2c(F)cc(Cl)c3c2CCO3)n2cnnc12
Kd [33]: 2.4 nM | IC50 [31]: 16 nM | solubility [32]: 0.2 µM (≈ 0.0822 µg/mL)

CN1CCc2cccc3c2[C@H]1Cc1ccc(O)c(O)c1-3 [APOMORPHINE HYDROCHLORIDE]
IC50 [25]: 15500 nM | Ki [26]: 2900 nM

Cc1ncccc1-c1cnc(NCc2c(F)cc(N)c3c2CCO3)n2cnnc12
Kd [33]: 0.5 nM | IC50 [31]: 50 nM

CS(=O)(=O)N1CC=C(c2cnc(NCC3Cc4cc(F)ccc4O3)n3cnnc23)CC1 (stereo not given)
IC50 [1]: < 20 nM | IC50 [16]: 1 nM | IC50 [17]: 13 nM

CCCCC1C(=O)N(c2ccccc2)N(c2ccc(O)cc2)C1=O (stereo not given) [OXYPHENBUTAZONE ANHYDROUS]
IC50 [25]: 229000 nM | Ki [26]: 44500 nM

Cc1ncccc1-c1cc2c(n3cnnc13)NCc1c(F)ccc3c1[C@H](CO3)CO2 [POCIREDIR]
Kd [10]: 163 nM

Cc1nc(NCc2cccc3c2OCO3)sc1-c1ccn(C)n1
Kd [10]: 5200 nM | IC50 [11]: 2100 nM

Cc1ncccc1-c1cnc(NCc2c(F)ccc3c2CCO3)n2cnnc12
Kd [33]: 0.4 nM | IC50 [31]: 5 nM

Cc1ncccc1-c1cnc(NCc2c(F)cc(F)c3c2CCO3)n2cnnc12
Kd [33]: 1.2 nM | IC50 [31]: 11 nM | solubility [32]: 4 µM (≈ 1.58 µg/mL)

Cc1ncccc1-c1cnc(NCc2c(F)cc(C#N)c3c2CCO3)n2cnnc12
Kd [33]: 15 nM | IC50 [31]: 102 nM | solubility [32]: 3 µM (≈ 1.2 µg/mL)

CCOP(=O)(OCC)C(NC(=O)[C@H](Cc1ccc(-c2ccccc2)cc1)NC(=O)/C=C/c1ccc(-c2ccccc2)cc1)P(=O)(OCC)OCC
IC50 [34]: 56100 nM | IC50 [35]: 260 nM | IC50 [36]: 6870 nM | IC50 [37]: 64900 nM | IC50 [38]: 91100 nM

COc1ccc(CCN2CCC(Nc3nc4ccccc4n3Cc3ccc(F)cc3)CC2)cc1 [ASTEMIZOLE]
IC50 [27]: 93800 nM
